Data published in PMC9578396, “Intrinsic Antibacterial Activity of Xeruborbactam In Vitro: Assessing Spectrum and Mode of Action” (Antimicrobial Agents and Chemotherapy, 2022).
“And” between values parts separate entries of the source, which are not always exact repeats. Equal values may be shown once.

Columns and labels:
[1] = test system: Escherichia coli; assay: Broth microdilution MIC (CLSI), Escherichia coli; type: cell-based; settings: Escherichia coli
Method in brief: (§1)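 MICs by CLSI broth microdilution in in-house panels. Strains tested were engineered strains carrying porin and efflux mutation combinations, KPC-producing clinical isolates and derivatives cured of KPC plasmids, and KPC-producing clinical isolates enriched for porin mutations.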

[2] = test system: A. baumannii strain ATCC 17978; assay: Fluorescence microscopy, cellular morphology; type: cell-based, Acinetobacter baumannii; settings: xeruborbactam, meropenem 1× and 2× MIC; aztreonam 2× MIC; amdinocillin 2 μg/mL
Protocol: Single colonies of K. pneumoniae strain KPM1026a, A. baumannii strain ATCC 17978, and P. aeruginosa strain PAM1154 were picked from LB agar plates, inoculated in cation-adjusted Mueller-Hinton broth (CA-MHB), and incubated overnight at 30°C with rolling. Overnight cultures were diluted into fresh CA-MHB and incubated at 30°C, with rolling, until they reached an OD600 of ≈0.12 to 0.15 (equivalent to ~2 × 10^8 CFU/mL). Samples were then treated with compounds and incubated at 30°C, with rolling. After 1 or 2 h of treatment, cells were collected and stained with a dye mix containing FM4-64 (1 μg/mL), DAPI (4′,6-diamidino-2-phenylindole) (2 μg/mL), and SYTOX green (0.5 μM) (Molecular Probes, Invitrogen, or Thermo Fisher Scientific). Cells were transferred onto an agarose pad containing 1.2% agarose and 20% LB medium for microscopy. Microscopy was performed as previously described ([34]).

[3] = test system: Klebsiella pneumoniae; assay: microbe, parasite or virus in culture; type: cell-based; settings: for MIC: Klebsiella pneumoniae
Method in brief: as §1

In the case of `C[C@@H](O)[C@H]1C(=O)N2C(C(=O)O)=C(S[C@@H]3CN[C@H](C(=O)N(C)C)C3)[C@H](C)[C@H]12` [Meropenem], the MIC [1] is reported as 0.03 µg/mL, the MIC ([1]; MG1655) is reported as 0.03 µg/mL and 0.08 µM and the MIC ([1]; strain ECM6001, ΔacrB) is reported as 0.03 µg/mL. For the same molecule, the MIC ([1]; strain ECM6502, marR (AcrAB overexpression)) was 0.06 µg/mL, the cellular morphology [2] was “swelling and rounding but not elongation” and the MIC90 [3] was ≤0.06 µg/mL. The MIC ([3]; ATCC49816) was 0.03 µg/mL and 0.08 µM, the MIC ([3]; KPM2601 (KPC-3; ΔompK35), alone) was 32 µg/mL and the MIC ([3]; KPM2631 (KPC-3; ompK36_fs ΔompK35), alone) was 256 µg/mL. The MIC ([3]; KPM3532 (TolQ::M189K), alone) was 0.06 µg/mL, the MIC ([3]; KPM3532, TolQ::M189K) was 0.06 µg/mL and the MIC ([3]; KPM3534 (TolQ::S31F), alone) was 0.06 µg/mL. It also gave an MIC ([3]; KPM3534, TolQ::S31F) of 0.06 µg/mL, an MIC ([3]; KPM4127 (KPM3532 TolQ::M189K/KPC-3), alone) of 32 µg/mL and an MIC ([3]; KPM4128 (KPM3534 TolQ::S31F/KPC-3), alone) of 32 µg/mL. For the same molecule, the MIC ([3]; KPM4129 (KPM3532 TolQ::M189K/NDM-1), alone) was > 64 µg/mL, the MIC ([3]; KPM4130 (KPM3534 TolQ::S31F/NDM-1), alone) was > 64 µg/mL and the MIC ([3]; KPM4235, TolQ::IP(183–1844)PR) was 0.06 µg/mL. For the same molecule, the MIC ([3]; KPM4236, TolQ::TAA at aa 103) was 0.06 µg/mL, the MIC ([3]; KPM4238, TolQ::S25F) was 0.06 µg/mL and the MIC ([3]; KPM4239, TolQ::S28F) was 0.06 µg/mL. The MIC ([3]; KPM4240, TolQ::S25Y) was 0.06 µg/mL, the MIC ([3]; no-plasmid strain KPM1026a) was 0.03 µg/mL and the MIC ([3]; no-plasmid strain KPM1027) was 0.06 µg/mL. For the same molecule, the MIC ([3]; no-plasmid strain KPM1171) was 2 µg/mL, the MIC ([3]; no-plasmid strain KPM2040) was 0.125 µg/mL and the MIC ([3]; no-plasmid strain KPM2600) was 0.06 µg/mL. The MIC ([3]; no-plasmid strain KPM2613) was 0.25 µg/mL, the MIC ([3]; strain KPM2600, ΔompK35) was 0.06 µg/mL and the MIC ([3]; strain KPM2613, ΔompK35 ompK36_2040) was 0.25 µg/mL. For the same molecule, the MIC ([3]; strain KPM2696, ΔacrB) was 0.03 µg/mL.
